One data set relates to normal gastric organoids. The class given is cell-based, human. The settings on record: 1 day. From the text:
(§1) Toxicity tests on human organoid s. Organoids have been established in our lab.
(§2) Ethical approval of the study and the written consent/permission forms were obtained from Institutional Review Board (IRB) at Hunan N ormal University before the study commencement. For each patient, written permission form was reviewed and signed by themselves. According to the literature14,15, briefly, the tissue samples obtained from patients were removed excess fat or muscle tissues and cut into small fragments.
(§3) The fragments were washed thoroughly, then digested and centrifuged to obtain cell pellet. The resulting pellet was resuspended in ice-cold 70 % BME for incubating 15 min and then the organoid medium was added. The composition of oral and gastric organoid medium was as follows: […]
(§4) Human gastric organoid medium contains Advanced Dulbecco’s Modified Eagle’s […]
GlutaMAX,1×B27 supplement (Life Technologies), 50 ng/mL human EGF […]
(§5) 50- AGGGTATCTAATCCT-30) and the final amplicon was quantified using a Qubit dsDNA assay kit (Life Technologies, California, United States). […]
(§6) The operational taxonomic units (OTUs) were generated using Vsearch software with a 97% similarity cutoff. The QIIME package and the RDP classifier (confidence threshold was 70%) were performed to select the representative read of each OTU and annotate and BLAST against the Silva database Version 123, respectively. […]

The test system of another data set is normal oral organoids. The class given is cell-based, human. As to conditions: 1 day.
Text: as §1, §2, §3, §5, §6

For data set [1], the system named is normal oral and gastric organoids. The class given is cell-based, human.
Text: as §1, §2, §3, §5, §6

For data set [2], the system named is S. mutans UA159 infection of teeth. The data set can be described thus: In vivo rodent model simulating severe childhood caries. Also noted: species or system Sprague-Dawley rat pups. The settings on record: for body weights vs control: after 35 days of topical treatment, 100 μM; for H&E staining of gingival, palatal and gastric tissues: caries study, Figure S12.
Text: For each patient, written permission form was reviewed and signed. […]
In vivo rodent model simulating severe childhood caries. All the animal studies were approved by the Institutional Animal Care and Use Committee (IACUC) of Hunan Normal University, and the National Institutes of Health guidelines for the performance of animal experiments were followed. 15 days -old female Sprague– Dawley rat pups were purchased with their dams from Slac & Jingda Corporation of laboratory animals, Changsha, China. All animals should be checked for the pathogen […]
infections especially for the S.mutans by plating oral swabs on mitis salivarius agar plus bacitracin. The animals were then infected by mouth with S. mutans UA159 (mid-logarithmic) 4 times (once a day) by pipetting 0.1 mL of a cell suspension containing 2 × 10^8 colony-forming units into their mouths. When the infection was confirmed, all the pups were randomly placed into three treatment groups, and their teeth were treated topically once a day for a total 35 days using the swabs plus modified syringe. The concentration of CHX and pHly -1 NPs was 100 μM and the volume was 300 μ L. The three treatment groups were: (1) control (PBS, pH 4.5); (2) CHX (100 μ M, dissolve in PBS, pH 4.5); (3) pHly -1 NPs (100 μM, dissolve in PBS, pH 4.5). Each group was provided the National Institutes of Health cariogenic diet 2000 and water containing 5% sucrose. After 35 days of treatment, all animals were sacrificed and jaws were collected according the literature . Determination of caries score of the jaws was performed by a calibrated examiner who was blind for the study by using codified samples according to Lar son’s modification of Keyes’ system 11 -13. […]
The fragments were washed thoroughly, then digested and centrifuged to obtain cell pellet. The resulting pellet was resuspended in ice-cold 70 % BME for incubating 15 min and then the organoid medium was added. The composition of oral and gastric organoid medium was as follows:
Human oral organoid medium contains Advanced Dulbecco’s Modified Eagle’s Medium/F12 supplemented with penicillin/streptomycin, 10 mM HEPES, 2 mM GlutaMAX, 1×B27 supplement (Life Technologies), 1.25 mM N -acetyl-l-cysteine (Sigma-Aldrich), 10 mM Nicotinamide (Sigma-Aldrich), 50 ng/mL human EGF (PeproTech), 500 nM A83- 01(Tocris Bioscience), 10 ng/mL human FGF10
(PeproTech), 5 ng/mL human FGF2 (PeproTech), 1 μM Prostaglandin E2 (Tocris Bioscience), 3 μM CHIR 99021 (Sigma -Aldrich), 1μM Foskolin, 100 μg/mL […]
as §4
GlutaMAX,1×B27 supplement (Life Technologies), 50 ng/mL human EGF
(PeproTech), 200 ng/mL human FGF10 (PeproTech), 1.25 mM N-acetyl-l-cysteine (Sigma-Aldrich), 10 nM Gastin-l, 500 nM A83- 01 (Tocris Bioscience), 10 μM […]
Prostaglandin E2 (Tocris Bioscience), 100 ng/mL human recombinant IGF-1 (Bio Legend), 3 μM CHIR 99021 (Sigma-Aldrich), 10 mM Nicotinamide (Sigma-Aldrich).
For the organoid toxicity assay, organoids were digested into single cells. After centrifugation and washing, single cells were plated in 70 % BME and then added to 96-well plates (5 μ L/well). After that, 100 μ L organoid medium was added into the […]

The subject of data set [3] is oral microbiota and gingival, palatal and gastric tissues. The class given is in vivo, Kuming mice. As to conditions: for H&E staining of gingival, palatal and gastric tissues / oral microbiota diversity / ecological balance (PCoA, Chao, Shannon) / abundance of top three phyla (Bacteroidetes, Firmicutes, Proteobacteria): 0.2%, 100 μL, once per day for 7 days; for oral microbiota diversity / ecological balance (PCoA, Chao, Shannon) / abundance of top three phyla (Bacteroidetes, Firmicutes, Proteobacteria): n = 8; for abundance of top three phyla (Bacteroidetes, Firmicutes, Proteobacteria): saliva on 8th day; for tooth staining: data not shown. An excerpt:
Toxicity tests on mice. Furthermore, 35- 40 g fe male Kuming mice were also purchased from Slac & Jingda Corporation of laboratory animals, Changsha, China to systematically evaluate the toxicity of pHly -1 NPs to oral microflora and soft tissue in mice. All animals were randomly placed into three treatment groups, and pHly-1 NPs or CHX in aqueous solution was gradually added to mice mouth once a day for seven days. Considering the concentration of CHX used in clinic is usually 0.2 %, we determined that the concentration of the pHly -1 NPs rinsed mouse’s mouth is also 0.2 % and the volume was 100 μ L. At the 8th day, saliva was drawn for oral microbiome analysis, and gingival, palatal and gastric tissues were collected for histopathological […]
Oral flora 16S rRNA sequencing. Total genomic DNA of oral samples was extracted in OE Biotech Company (Shanghai, China) using a QIAamp DNA Stool Mini Kit (Qiagen, Germantown, MD, USA). Bacterial DNA was amplified with primers […]
targeting the V3- V4 regions (50- TACGGRAGGCAGCAG- 30,
50- AGGGTATCTAATCCT-30) and the final amplicon was quantified using a Qubit dsDNA assay kit (Life Technologies, California, United States). Equal amounts of purified amplicons were pooled for subsequent sequencing by the Illumina Nova 6000 platform (Illumina, USA) (Shanghai Oebiotech Co., Ltd., Shanghai, China). The raw data were treated and processed using the QIIME software package (version 1.8.0).
The operational taxonomic units (OTUs) were generated using Vsearch software with a 97% similarity cutoff. The QIIME package and the RDP classifier (confidence threshold was 70%) were performed to select the representative read of each OTU and annotate and BLAST against the Silva database Version 123, respectively.
Furthermore, the microbial diversity in oral samples was estimated by using the alpha diversity that include Chao1 and Shannon index. The bacterial diversity between groups was compared using the Wilcoxon rank sum test.

No end group written: not given here.

As for `[H]/N=C(\N/C(=N/[H])NCCCCCCNC(=N)NC(=N)Nc1ccc(Cl)cc1)Nc1ccc(Cl)cc1` [CHX, chlorhexidine], the gastric organoids death entry with normal gastric organoids (31.25 μM) is recorded as “about 40%”. Also, the oral organoid death entry in the data set on normal oral organoids (15.6 μM) is recorded as “about 60%”. Also, the “concentration inducing organoid death or decreased viability” value in data set [1] is on record as ~ 20 μM. For the same compound, in data set [2], the “body weights vs control” value is on record as “No significant difference in body weights”; the “H&E staining of gingival, palatal and gastric tissues” value (“H&E staining of gingival” for short) is given as “no detectable signals for the harmful effect”. In data set [2] (topical 100 μM, 300 μL, pH 4.5, once per day, 35 days, n = 8), the “caries lesions on sulcal and smooth surfaces (Keyes' scoring, Larson's modification) vs control” value is recorded as “alleviated severe lesions”. In data set [3], the “H&E staining of gingival” value is “epithelial cell shedding and structural damage of gastric tissue”; the “oral microbiota diversity / ecological balance (PCoA, Chao, Shannon)” value is recorded as “reduced the oral microbiota diversity”; the “abundance of top three phyla (Bacteroidetes, Firmicutes, Proteobacteria)” value is “significantly increased the abundance of Firmicutes species”; the tooth staining result is given as “occasionally present”.
As for “KIWFHAMHIIAHFIAHQHLHQHL-NH2 [pHly-1 NPs]”, in the data set on normal gastric organoids (500 μM), the “effect on gastric organoid viability” value was “no obvious effect”. In the data set on normal oral organoids (500 μM), the “effect on oral organoid viability” value is recorded as “no apparent viability decrease”. The “effect on both organoids” value in data set [1] is listed as “no apparent effect”. In data set [2], the “body weights vs control” value is “No significant difference in body weights”; the “H&E staining of gingival” value is listed as “no detectable signals for the harmful effect”. Besides, in data set [3], the “H&E staining of gingival” value is reported as “no visible signs of harmful effects”; the “oral microbiota diversity / ecological balance (PCoA, Chao, Shannon)” value is recorded as “did not disrupt the ecological balance of the microbiota”; the “abundance of top three phyla (Bacteroidetes, Firmicutes, Proteobacteria)” value was “did not affect their abundance”; the tooth staining result is recorded as “not observed”.
